According to ChEMBL document CHEMBL1201862, “PubChem BioAssay data set” (2004):
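In this assay, cells in 96-well plates receive the compound at five concentrations for 48 hours. Endpoints are linearly interpolated between the surrounding concentrations. Here, GI50 denotes the concentration required for 50% inhibition of growth.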 The source made the active and inactive calls. No stated cut-off is given here; in the data, active = GI50 up to about 1.1 µM and inactive = higher.

Key:
Experiment in all cases: NCI-60 cell line screen, 48 h
SNB-19 = system: SNB-19
PC-3 = system: PC-3
SK-OV-3 = system: SK-OV-3
MDA-N = system: MDA-N
SNB-75 = system: SNB-75
HOP-92 = system: HOP-92
HL-60 = system: HL-60
HCC 2998 = system: HCC 2998
TK-10 = system: TK-10
HCT-15 = system: HCT-15
SF-268 = system: SF-268
SK-MEL-28 = system: SK-MEL-28
Malme-3M = system: Malme-3M
RXF 393 = system: RXF 393
KM12 = system: KM12
CAKI-1 = system: CAKI-1
SR = system: SR
M14 = system: M14
Hs-578T = system: Hs-578T
NCI-H522 = system: NCI-H522

Row | Compound | GI50 (SNB-19) | GI50 (PC-3) | GI50 (SK-OV-3) | GI50 (MDA-N) | GI50 (SNB-75) | GI50 (HOP-92) | GI50 (HL-60) | GI50 (HCC 2998) | GI50 (TK-10) | GI50 (HCT-15) [µM] | GI50 (SF-268) | GI50 (SK-MEL-28) | GI50 (Malme-3M) | GI50 (RXF 393) | GI50 (KM12) | GI50 (CAKI-1) | GI50 (SR) | GI50 (M14) | GI50 (Hs-578T) | GI50 (NCI-H522)
1 | CC(=O)c1ccc2c(c1)CC1(C2)Cc2ccc3c(c2C1=O)CCC3 (stereo not given) | 53.1 µM (inactive) | 21.6 µM (inactive) | 34.9 µM (inactive) | 21.8 µM (inactive) | 20 µM (inactive) | 14.2 µM (inactive) | 8.26 µM (inactive) | 15 µM (inactive) | 24 µM (inactive) | 25 | 31.2 µM (inactive) | 20.3 µM (inactive) | 18 µM (inactive) | 24.7 µM (inactive) | 28.2 µM (inactive) | 23.2 µM (inactive) | 65.5 µM (inactive) | 20 µM (inactive) | 31.5 µM (inactive) | 19.1 µM (inactive)
2 | CCCNCC(O)CNc1ccc(NCC(O)CNCCC)c2c1C(=O)c1ccccc1C2=O (stereo not given) | 1.95 µM (inactive) | 1.95 µM (inactive) | 2.04 µM (inactive) | 2.74 µM (inactive) | 2.29 µM (inactive) | 2.07 µM (inactive) | 2.52 µM (inactive) | 1.38 µM (inactive) | 10.6 µM (inactive) | 43.9 | 2.03 µM (inactive) | 2.96 µM (inactive) | 2.7 µM (inactive) |  | 3.41 µM (inactive) | 12.6 µM (inactive) | 2.42 µM (inactive) | 3.33 µM (inactive) | 3.61 µM (inactive) | 1.21 µM (inactive)
3 | C=C(Cl)C(Cl)(CBr)CCCC(C)(C)Cl (stereo not given) | 14.7 µM (inactive) | 3.25 µM (inactive) | > 100 µM (inactive) | 28.1 µM (inactive) | 4.48 µM (inactive) | 2.41 µM (inactive) | 1.53 µM (inactive) | 15.9 µM (inactive) | 2.26 µM (inactive) | 26.3 | 12.7 µM (inactive) | 11.7 µM (inactive) | 18 µM (inactive) | 17.7 µM (inactive) | 1.7 µM (inactive) | 1.99 µM (inactive) | > 53 µM (inactive) | > 75.2 µM (inactive) | 2.98 µM (inactive) | 9.25 µM (inactive)
4 | CCCCCCCCCCCCCC(=O)CBr | 16.9 µM (inactive) | 3.62 µM (inactive) | 24 µM (inactive) | 12.3 µM (inactive) | 6.03 µM (inactive) | 2.36 µM (inactive) | 1.03 µM (active) | 15.8 µM (inactive) | 15.8 µM (inactive) | 11.1 | 12.2 µM (inactive) | 16.5 µM (inactive) | 9.06 µM (inactive) | 3.3 µM (inactive) | 12.1 µM (inactive) | 1.1 µM (active) | 1.04 µM (active) | 10.8 µM (inactive) | 5.64 µM (inactive) | 1.84 µM (inactive)
5 | CC(C)=C=CC(C)(C)NS(=O)(=O)NC(C)(C)C=C=C(C)C | > 100 µM (inactive) | 81.1 µM (inactive) | > 100 µM (inactive) | > 100 µM (inactive) | 47.4 µM (inactive) | > 100 µM (inactive) | 28.2 µM (inactive) | 25.5 µM (inactive) | > 100 µM (inactive) | > 100 | 89.3 µM (inactive) | > 100 µM (inactive) | > 100 µM (inactive) |  | > 100 µM (inactive) | > 100 µM (inactive) | 18.4 µM (inactive) | > 100 µM (inactive) | > 100 µM (inactive) | 56.6 µM (inactive)
6 | Oc1ccccc1/C=N/c1nc2cc3sc(/N=C/c4ccccc4O)nc3cc2s1 | > 100 µM (inactive) | > 89.3 µM (inactive) | > 89.3 µM (inactive) | > 100 µM (inactive) | > 78 µM (inactive) | > 100 µM (inactive) | 4.44 µM (inactive) | > 100 µM (inactive) | > 86.9 µM (inactive) | 19.2 | 50.9 µM (inactive) | > 100 µM (inactive) | > 100 µM (inactive) | > 32.7 µM (inactive) | > 66.8 µM (inactive) | 37.2 µM (inactive) | 2.63 µM (inactive) | 97.1 µM (inactive) | 21.5 µM (inactive) | 9.77 µM (inactive)
7 | CSc1ncnc2c1cnn2Cc1cn(COCCO)nn1 | > 100 µM (inactive) | 36 µM (inactive) | 47.6 µM (inactive) | 18.5 µM (inactive) |  | > 100 µM (inactive) | 40 µM (inactive) | 32.2 µM (inactive) | > 100 µM (inactive) | > 100 | > 100 µM (inactive) | > 100 µM (inactive) | > 100 µM (inactive) | 46.6 µM (inactive) | 23.2 µM (inactive) |  | 12.5 µM (inactive) | > 100 µM (inactive) | > 100 µM (inactive) | 
8 | Cc1nc2c(nc1C)-c1c(c3c(n1C)C(=O)CCC3)C(=O)C2=O | 0.873 µM (active) | 1.17 µM (inactive) | 1.27 µM (inactive) | 0.162 µM (active) | 0.931 µM (active) | 1.29 µM (inactive) | 0.232 µM (active) | 1.61 µM (inactive) | 2.22 µM (inactive) | 0.334 | 0.295 µM (active) | 0.622 µM (active) | 0.297 µM (active) | 0.16 µM (active) | 1.45 µM (inactive) |  | 0.175 µM (active) | 0.338 µM (active) | 1.42 µM (inactive) | 0.434 µM (active)
9 | C/C(=C\COc1ccc2ccc(=O)oc2c1)C1=CC(=O)C(C)(C)O1 [GEIPARVARIN] | 6.15 µM (inactive) | 6.58 µM (inactive) | 7.87 µM (inactive) | 3.28 µM (inactive) | 5.01 µM (inactive) | 3.76 µM (inactive) | 2.29 µM (inactive) | 3.94 µM (inactive) | 5.07 µM (inactive) | 3.04 | 3.93 µM (inactive) | 4.23 µM (inactive) | 5.58 µM (inactive) | 2.01 µM (inactive) |  | 4.83 µM (inactive) | 1.68 µM (inactive) | 4.04 µM (inactive) | 2.51 µM (inactive) | 
10 | CCOC(=O)c1sc(N/N=C2\NC(=O)/C(=C/c3ccc([N+](=O)[O-])cc3)S2)nc1C | 32.6 µM (inactive) | 25.6 µM (inactive) | 31.4 µM (inactive) | 25.9 µM (inactive) | 25.8 µM (inactive) | 16.9 µM (inactive) | 22.8 µM (inactive) | 27.4 µM (inactive) | 35.3 µM (inactive) | 19.7 | 27.5 µM (inactive) | 32.1 µM (inactive) |  | 26.8 µM (inactive) | 15.5 µM (inactive) | 22.1 µM (inactive) | 6.65 µM (inactive) | 28.8 µM (inactive) | 33.9 µM (inactive) | 17.7 µM (inactive)
11 | O=C1/C(=N/O)Cc2c(Br)ccc(Br)c21 |  | 27.8 µM (inactive) | 37.2 µM (inactive) | 48.3 µM (inactive) | > 100 µM (inactive) | > 100 µM (inactive) | 26.9 µM (inactive) | 24.2 µM (inactive) | 48.4 µM (inactive) | 33.7 | 35.2 µM (inactive) | 60.3 µM (inactive) |  | 99.3 µM (inactive) | 67.3 µM (inactive) | 42.4 µM (inactive) | 28.4 µM (inactive) | > 100 µM (inactive) | 37.8 µM (inactive) | 27.5 µM (inactive)
12 | COCCOCCOC1=CC(=O)c2c(O)ccc(O)c2C1=O | 1.75 µM (inactive) | 2.48 µM (inactive) | > 10 µM (inactive) | 0.153 µM (active) | 1.82 µM (inactive) | 2.18 µM (inactive) | 0.505 µM (active) | 1.82 µM (inactive) | 2.93 µM (inactive) |  | 2.59 µM (inactive) | 1.54 µM (inactive) | 0.149 µM (active) | 2.07 µM (inactive) | 1.83 µM (inactive) | 0.729 µM (active) | 1.19 µM (inactive) | 0.971 µM (active) | 2.47 µM (inactive) | 1.57 µM (inactive)
13 | CC1(C)CCCCCC(C)(CCCCCCCCCCCO)C1=O (stereo not given) | 17.2 µM (inactive) | 16.1 µM (inactive) | 17.6 µM (inactive) | 17.9 µM (inactive) | 16.3 µM (inactive) | 17.3 µM (inactive) | 14.7 µM (inactive) | 24.3 µM (inactive) | 12.1 µM (inactive) | 16.1 | 16.1 µM (inactive) | 17.9 µM (inactive) | 16 µM (inactive) | 16.9 µM (inactive) | 18.1 µM (inactive) | 15.1 µM (inactive) | 1.41 µM (inactive) |  | 16.3 µM (inactive) | 17.3 µM (inactive)
14 | CCn1c(-c2ccc(OC)cc2)nc2c1C(=O)c1ccccc1C2=O | > 100 µM (inactive) | > 100 µM (inactive) | > 100 µM (inactive) | > 100 µM (inactive) | > 100 µM (inactive) | > 100 µM (inactive) | > 100 µM (inactive) | > 100 µM (inactive) | > 100 µM (inactive) | > 100 | > 100 µM (inactive) | > 100 µM (inactive) | > 100 µM (inactive) | > 100 µM (inactive) | > 100 µM (inactive) |  | > 100 µM (inactive) | > 100 µM (inactive) | > 100 µM (inactive) | > 100 µM (inactive)
15 | CC1(CNCc2ccccc2)CC(CCc2ccccc2)N(C(=O)c2ccc([N+](=O)[O-])cc2)C1Cc1ccc(O)cc1 (stereo not given) | 14.7 µM (inactive) | 10.7 µM (inactive) | 17.1 µM (inactive) | 12.3 µM (inactive) |  | 2.04 µM (inactive) | 11.3 µM (inactive) | 13.1 µM (inactive) | 16.4 µM (inactive) | 12.6 | 13.4 µM (inactive) | 31 µM (inactive) | 19.2 µM (inactive) | 5.04 µM (inactive) | 15.6 µM (inactive) | 12.9 µM (inactive) | 6.75 µM (inactive) | 13.7 µM (inactive) | 13.5 µM (inactive) | 8.79 µM (inactive)
